# Laboratory results: article PMC12775124, “CUL4A-DDB1-DCAF10 is an N-recognin for N-terminally acetylated Src kinases” (Nature Communications, 2026)
# Tested on: CUL4A-DDB1-DCAF10
# Assay: In vitro ubiquitination of Lyn-GFP variants by CUL4A-DDB1-DCAF10
# Format: biochemical, human
# Conditions: for Increase of in vitro ubiquitination under NMT1/2 siRNA: WT E3 complex, IP from NMT1/2 siRNA vs control DLD-1 cells
# Source text: Lyn^WT-GFP was ubiquitinated by the WT E3 complex in both conditions; however, unlike in vitro ubiquitination with endogenous Lyn (Fig. 5c, d), ubiquitination increased ~6-fold under NMT1/2 siRNA conditions. This is consistent with DCAF10 being limiting and overexpressed Lyn-GFP, accumulating an acetylated fraction available for DCAF10 in vitro. Then, we performed IPs for all Nt variants under NMT1/2 siRNA conditions (Fig. 6d, h–i). […] In vitro ubiquitination assays using untreated cell lysates led to similar results (Supplementary Fig. 7h, i).
# Reactions contained E1, UBCH5B (E2), ubiquitin, Mg-ATP in ligation buffer and were incubated with bead-bound substrates, followed by washing and immunoblot detection of ubiquitinated species (anti-ubiquitin), with loading controls (anti-Lyn, -Fyn, -Src or -GFP) (n = 3 independent enzymatic assays). Complete reagent lists, complex preparation, substrate IP conditions, wash buffers, and gel/blot parameters are provided in the Supplementary Methods and Tables.
# 357 (v/v) glycerol, 2 mM TCEP, supplemented with Protease Inhibitor Cocktail), and lysed
# 358 by sonication. Lysates were cleared by centrifugation at 28,000 rpm for 45 min at 4 °C
# 359 using a JA-30.50 rotor (Beckman Coulter, Brea, CA, USA). The cleared and filtered (0.8
# 360 µm) lysate was applied to 1 mL of Strep-Tactin®XT 4Flow® resin (iba), pre-equilibrated
# 361 once with wash buffer (100 mM Tris-HCl pH 8.0, 150 mM NaCl, 1 mM EDTA) and lysis
# 362 buffer. The lysate was incubated on a tube roller for 16 h at 4 °C. After incubation, beads
# 363 were washed with 50 mL of lysis buffer. Bound proteins were eluted with 10 mL of lysis
# 364 buffer supplemented with 50 mM biotin, after 15 min incubation on a tube roller at 4 °C.
# 366 Superdex 200 10/300 or 16/60 SEC column (GE Healthcare, Chicago, IL, USA),
# 367 preequilibrated in SEC buffer (250 mM Tris pH 7.5, 250 mM NaCl, 10% (v/v) glycerol,
# 370 Purified proteins were visualized during and after the purification by SDS-gels containing
# 371 TCE (2,2,2-trichloroethanol)62. The identity of proteins was confirmed by WB and MS.
# 373 In vitro ubiquitination assays
# 374 The in vitro ubiquitination assays were performed as previously described8. In brief,
# 375 E1 (50 nM), UBCH5B (250 nM), ubiquitin (1.5 µg), Mg-ATP (3 mM), ligation buffer,
# 376 and water were pre-mixed. The premix was divided, and either CUL4A-RBX1-
# 378 RBX1DDB1 (-DCAF10) (250 nM each) was added. 15 μL of each premix were incubated
# 379 with substrates (endogenous Lyn or Lyn-GFP constructs) bound to beads for 1 h at 30°C
# 380 with shaking. Samples were then washed four to five times with a buffer containing 50 […]
# 382 EDTA, and loaded on a gradient gel (4–15%). Ubiquitination of substrates was assessed
# 383 by WB using an anti-ubiquitin antibody. Equal substrate loading was evaluated by anti- […]
substance,measurement,setting,value
Lyn^WT-GFP: doxycycline-inducible C-terminally GFP-fused Lyn in DLD-1 Lyn KO cells,In vitro ubiquitination (in words),"Lyn-GFP variants, NMT1/2 siRNA",robustly ubiquitinated by the WT E3 complex
same,Increase of in vitro ubiquitination under NMT1/2 siRNA,,~ 6 fold
same,Increase of in vitro ubiquitination under NMT1/2 siRNA,listed as LynWT–GFP,> 5 fold
